Source: paper PMC6956242 (Journal of Medicinal Chemistry, 2019)
Like-named read-outs stand apart in the source and are kept apart here. The star is where a group is joined. Biotin = O=C1N[C@H]2[C@H](CS[C@H]2CCCCC(=O)*)N1

T1: His6-RORγt-LBD (Homo sapiens, UniProt P51449)
T1 sequence (P51449 265-518): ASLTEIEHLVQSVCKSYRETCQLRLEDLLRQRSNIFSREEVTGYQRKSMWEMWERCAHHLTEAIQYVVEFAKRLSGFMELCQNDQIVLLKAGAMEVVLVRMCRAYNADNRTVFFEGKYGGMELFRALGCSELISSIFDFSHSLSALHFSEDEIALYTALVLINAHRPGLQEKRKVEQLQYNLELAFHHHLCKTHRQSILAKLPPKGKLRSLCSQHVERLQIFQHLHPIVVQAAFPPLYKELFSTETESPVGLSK

T2: His6-RORγt-LBD (human retinoic acid receptor-related orphan receptor γt ligand binding domain, residues … (human, UniProt P51449-1 265-518))
T2 sequence (looked up): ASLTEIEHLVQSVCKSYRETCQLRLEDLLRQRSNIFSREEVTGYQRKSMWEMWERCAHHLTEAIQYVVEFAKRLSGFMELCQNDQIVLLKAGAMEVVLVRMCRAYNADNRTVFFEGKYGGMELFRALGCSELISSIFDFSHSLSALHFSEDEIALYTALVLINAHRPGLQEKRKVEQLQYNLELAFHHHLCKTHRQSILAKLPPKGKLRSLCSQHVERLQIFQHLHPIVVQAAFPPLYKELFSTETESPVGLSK


Columns and labels:
Chemical stability = type: physicochemical; settings: 2 μM, aqueous buffer pH 7.4
[1] = Microsomal stability phase II; type: in vitro ADME, human; settings: 5 μM, UDPGA, 1 h, 37 °C
Plasma stability = type: in vitro ADME; settings: 5 μM, 100% plasma, 1 h, 37 °C
PAMPA = type: in vitro ADME; settings: 500 μM donor, 20 h
Plasma protein binding = type: in vitro ADME; settings: 5 μM, equilibrium dialysis 6 h, 37 °C
His6-RORγt-LBD [2] = target: T1, His6-RORγt-LBD; type: biochemical; settings: for improvement in potency compared to phenyl 19: vs 19, coactivator recruitment IC50
His6-RORγt-LBD [3] = target: T1, His6-RORγt-LBD
[4] = target: T2, His6-RORγt-LBD (human retinoic acid …); experiment: AlphaScreen or HTRF

Row | chemical stability (% remain) (Chemical stability) | microsomal stability phase 2 (% remain) [1] | plasma stability (% remain) (Plasma stability) | PAMPA (% flux) (PAMPA) | plasma protein binding (% bound) (Plasma protein binding) | Molecule | also measured
1 | 81.0 % remain | 47.1 % remain | 100 % remain | 23.7 % flux | 99.9 % bound | O=C(O)c1ccc(-c2nn(C(=O)c3c(Cl)cccc3C(F)(F)F)c3ccccc23)cc1 [compound 3, MRL-871, reference compound] | –
2 | – | – | – | – | – | O=C(O)c1ccc(NCc2c(-c3c(Cl)cccc3C(F)(F)F)noc2-c2cccc3ccccc23)cc1 [compound 26, 4-[({3-[2-Chloro-6-(trifluoromethyl)phenyl]-5-(naphthalen-1-yl)-1,2-oxazol-4-yl}methyl)amino]benzoic Acid] | IC50 (TR-FRET coactivator recruitment) (His6-RORγt-LBD [2]; RORγt LBD, SRC-1 box2 peptide, triplicate): no IC50 curve could be fitted
3 | 95.3 % remain | 69.8 % remain | 85.9 % remain | 33.6 % flux | 99.9 % bound | O=C(O)c1ccc(NCc2c(-c3c(Cl)cccc3C(F)(F)F)noc2-c2cc[nH]c2)cc1 [compound 25, 4-[({3-[2-Chloro-6-(trifluoromethyl)phenyl]-5-(1H-pyrrol-3-yl)-1,2-oxazol-4-yl}methyl)amino]benzoic Acid] | Hill slope (His6-RORγt-LBD [3]; 0 μM cholesterol): –0.77 ± 0.04; Hill slope (His6-RORγt-LBD [3]; 0.25 μM cholesterol): –0.86 ± 0.03; Hill slope (His6-RORγt-LBD [3]; 1.0 μM cholesterol): –1.01 ± 0.03; improvement in potency compared to phenyl 19 (His6-RORγt-LBD [2]): 36 fold
4 | – | – | – | – | – | C[C@H]1O[C@@H](O[C@H]2[C@@H](O)C[C@H](O[C@H]3[C@@H](O)C[C@H](O[C@H]4CC[C@@]5(C)[C@H](CC[C@@H]6[C@@H]5C[C@@H](O)[C@]5(C)[C@@H](C7=CC(=O)OC7)CC[C@]65O)C4)O[C@@H]3C)O[C@@H]2C)C[C@H](O)[C@@H]1O [compound 1, digoxin, reference compound] | Hill slope (His6-RORγt-LBD [3]; 0 μM cholesterol): –0.76 ± 0.05; Hill slope (His6-RORγt-LBD [3]; 0.25 μM cholesterol): –0.77 ± 0.03; Hill slope (His6-RORγt-LBD [3]; 1.0 μM cholesterol): –1.01 ± 0.06
5 | – | – | – | – | – | O=C(O)c1ccc(CNC(=O)c2c(-c3c(Cl)cccc3C(F)(F)F)noc2-c2ccccc2)cc1 [compound 18, 4-[({3-[2-Chloro-6-(trifluoromethyl)phenyl]-5-phenyl-1,2-oxazol-4-yl}formamido)methyl]benzoic Acid] | increase in potency compared to the initial hit (His6-RORγt-LBD [2]; vs 8, TR-FRET IC50): 6 fold
6 | 100 % remain | 92.8 % remain | 86.5 % remain | 50.4 % flux | 100 % bound | O=C(O)c1ccc(NCc2c(-c3c(Cl)cccc3C(F)(F)F)noc2-c2ccco2)cc1 [compound 23, 4-[({3-[2-Chloro-6-(trifluoromethyl)phenyl]-5-(furan-2-yl)-1,2-oxazol-4-yl}methyl)amino]benzoic Acid] | improvement in potency compared to phenyl 19 (His6-RORγt-LBD [2]): 9 fold
7 | 95.4 % remain | 100 % remain | 99.9 % remain | 60.1 % flux | 97.8 % bound | O=C(O)c1ccc(NC(=O)c2c(-c3c(Cl)cccc3C(F)(F)F)noc2-c2ccccc2)cc1 [compound 8, 4-{3-[2-Chloro-6-(trifluoromethyl)phenyl]-5-phenyl-1,2-oxazole-4-amido}benzoic Acid] | –
8 | – | – | – | – | – | Biotin-PSSHSSLTARHKILHRLLQEGSPSD-NH2 (SMILES CC[C@H](C)[C@H](NC(=O)[C@H](CCCCN)NC(=O)[C@H](Cc1c[nH]cn1)NC(=O)[C@H](CCCNC(=N)N)NC(=O)[C@H](C)NC(=O)[C@@H](NC(=O)[C@H](CC(C)C)NC(=O)[C@H](CO)NC(=O)[C@H](CO)NC(=O)[C@H](Cc1c[nH]cn1)NC(=O)[C@H](CO)NC(=O)[C@H](CO)NC(=O)[C@@H]1CCCN1C(=O)CCCC[C@@H]1SC[C@@H]2NC(=O)N[C@@H]21)[C@@H](C)O)C(=O)N[C@@H](CC(C)C)C(=O)N[C@@H](Cc1c[nH]cn1)C(=O)N[C@@H](CCCNC(=N)N)C(=O)N[C@@H](CC(C)C)C(=O)N[C@@H](CC(C)C)C(=O)N[C@@H](CCC(N)=O)C(=O)N[C@@H](CCC(=O)O)C(=O)NCC(=O)N[C@@H](CO)C(=O)N1CCC[C@H]1C(=O)N[C@@H](CO)C(=O)N[C@@H](CC(=O)O)C(N)=O) [N-terminal biotinylated SRC-1 box2 peptide] | binding result [4]: binds
